Results as given in patent publication US10251892B2, “Bicyclic heterocycles as FGFR4 inhibitors” (Incyte Corporation, priority 2015, dated 2019).

Molecular target: FGFR3 enzyme (Homo sapiens (Human), UniProt P22607)
Assay: FGFR Enzymatic Assay (peptide phosphorylation, FRET), FGFR3
Type: biochemical
Conditions: IC50 ratio showing FGFR3 selectivity; pre-incubated for 4 hours
Experimental: The inhibitor potency of the exemplified compounds was measured in an enzyme assay that measures peptide phosphorylation using FRET measurements to detect product formation. Inhibitors were serially diluted in DMSO and a volume of 0.5 μL was transferred to the wells of a 384-well plate.
GraphPad prism3 was used to analyze the data.

Sequence of FGFR3 enzyme (P22607 23-806): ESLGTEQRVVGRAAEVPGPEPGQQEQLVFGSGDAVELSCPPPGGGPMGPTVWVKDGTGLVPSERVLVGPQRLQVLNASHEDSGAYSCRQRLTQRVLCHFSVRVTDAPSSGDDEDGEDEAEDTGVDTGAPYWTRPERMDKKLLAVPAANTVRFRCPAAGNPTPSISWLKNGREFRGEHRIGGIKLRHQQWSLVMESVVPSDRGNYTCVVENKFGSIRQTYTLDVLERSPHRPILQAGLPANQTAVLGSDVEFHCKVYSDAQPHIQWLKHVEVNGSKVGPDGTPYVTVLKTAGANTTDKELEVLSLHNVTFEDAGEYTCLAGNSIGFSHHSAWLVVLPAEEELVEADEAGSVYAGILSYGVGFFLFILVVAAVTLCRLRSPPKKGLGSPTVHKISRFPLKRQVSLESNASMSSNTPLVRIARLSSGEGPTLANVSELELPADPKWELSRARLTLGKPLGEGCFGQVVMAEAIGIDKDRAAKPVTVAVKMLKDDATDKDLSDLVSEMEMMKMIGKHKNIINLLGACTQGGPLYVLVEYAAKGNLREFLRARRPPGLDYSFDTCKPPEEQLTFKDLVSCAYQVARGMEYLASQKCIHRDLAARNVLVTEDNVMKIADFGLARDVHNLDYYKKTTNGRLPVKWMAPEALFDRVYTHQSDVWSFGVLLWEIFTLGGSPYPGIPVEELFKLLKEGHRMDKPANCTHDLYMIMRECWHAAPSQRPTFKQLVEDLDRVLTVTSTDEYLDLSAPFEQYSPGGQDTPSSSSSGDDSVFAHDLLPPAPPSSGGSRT

Row | Structure (SMILES) | FGFR1/FGFR3 | FGFR4/FGFR3
1 | CCN1C(=O)N(c2c(F)c(OC)cc(OC)c2F)Cc2cnc(-c3ccccc3)cc21 [Example 22, 3-(2,6-difluoro-3,5-dimethoxyphenyl)-1-ethyl-7-phenyl-3,4-dihydropyrido[4,3-d]pyrimidin-2(1H)-one] | >5 | –
2 | CCN1C(=O)N(c2c(F)c(OC)cc(OC)c2F)Cc2cnc(-c3cn(CCN4CCOCC4)nc3C)cc21 [Example 49, 3-(2,6-difluoro-3,5-dimethoxyphenyl)-1-ethyl-7-(3-methyl-1-(2-morpholinoethyl)-1H-pyrazol-4-yl)-3,4-dihydropyrido[4,3-d]pyrimidin-2(1H)-one] | >5 | >1
3 | COc1cc(OC)c(F)c(N2Cc3cnc(-c4cnn(C5(CC#N)CN(C(C)=O)C5)c4)cc3C3(CC3)C2=O)c1F [Example 56, 2-(1-acetyl-3-(4-(2′-(2,6-difluoro-3,5-dimethoxyphenyl)-3′-oxo-2′,3′-dihydro-1′H-spiro[cyclopropane-1,4′-[2,7]naphthyridine]-6′-yl)-1H-pyrazol-1-yl)azetidin-3-yl)acetonitrile] | >5 | >1
4 | COc1cc(OC)c(F)c(N2Cc3cnc(-c4cn(C)nc4C)cc3N(c3cncnc3)C2=O)c1F [Example 61, 3-(2,6-difluoro-3,5-dimethoxyphenyl)-7-(1,3-dimethyl-1H-pyrazol-4-yl)-1-(pyrimidin-5-yl)-3,4-dihydropyrido[4,3-d]pyrimidin-2(1H)-one] | >10 | >5
5 | COc1cc(OC)c(F)c(N2Cc3cnc(-c4cn(C)nc4C)cc3N(c3ccc(F)c(C#N)c3)C2=O)c1F [Example 66, 5-(3-(2,6-difluoro-3,5-dimethoxyphenyl)-7-(1,3-dimethyl-1H-pyrazol-4-yl)-2-oxo-3,4-dihydropyrido[4,3-d]pyrimidin-1(2H)-yl)-2-fluorobenzonitrile] | >5 | >5
6 | COc1cc(OC)c(F)c(N2Cc3cnc(-c4cn(C)nc4C)cc3N(CC3CC3)C2=O)c1F [Example 29, 1-(cyclopropylmethyl)-3-(2,6-difluoro-3,5-dimethoxyphenyl)-7-(1,3-dimethyl-1H-pyrazol-4-yl)-3,4-dihydropyrido[4,3-d]pyrimidin-2(1H)-one] | >1 | >5
7 | COc1cc(OC)c(F)c(N2Cc3cnc(-c4cn(C)nc4C)cc3N(c3ccc(F)cc3)C2=O)c1F [Example 40, 3-(2,6-difluoro-3,5-dimethoxyphenyl)-7-(1,3-dimethyl-1H-pyrazol-4-yl)-1-(4-fluorophenyl)-3,4-dihydropyrido[4,3-d]pyrimidin-2(1H)-one] | >10 | >10
8 | COc1cc(OC)c(F)c(N2Cc3cnc(-c4cn(C)nc4C)cc3N(C3CCOC3)C2=O)c1F (stereo not shown) [Example 33, 3-(2,6-difluoro-3,5-dimethoxyphenyl)-7-(1,3-dimethyl-1H-pyrazol-4-yl)-1-(tetrahydrofuran-3-yl)-3,4-dihydropyrido[4,3-d]pyrimidin-2(1H)-one] | >5 | >5

Other lines, results leading:

Row | FGFR1/FGFR3 | FGFR4/FGFR3 | Structure (SMILES)
9 | >3 | >3 | COc1cc(OC)c(F)c(N2Cc3cnc(-c4cn(C5CCN(C)C5)nc4C)cc3C3(CC3)C2=O)c1F (stereo not shown) [Example 163, 2′-(2,6-difluoro-3,5-dimethoxyphenyl)-6′-(3-methyl-1-(1-methylpyrrolidin-3-yl)-1H-pyrazol-4-yl)-1′H-spiro[cyclopropane-1,4′-[2,7]naphthyridin]-3′(2′H)-one]
10 | >5 | >3 | CCN1C(=O)N(c2c(F)c(OC)cc(OC)c2F)Cc2cnc(-c3cn(CC)nc3C)cc21 [Example 168, 3-(2,6-difluoro-3,5-dimethoxyphenyl)-1-ethyl-7-(1-ethyl-3-methyl-1H-pyrazol-4-yl)-3,4-dihydropyrido[4,3-d]pyrimidin-2(1H)-one]
11 | >5 | >5 | COc1cc(OC)c(F)c(N2Cc3cnc(-c4csc(N(C)C)n4)cc3C3(CC3)C2=O)c1F [Example 160, 2′-(2,6-difluoro-3,5-dimethoxyphenyl)-6′-(2-(dimethylamino)thiazol-4-yl)-1′H-spiro[cyclopropane-1,4′-[2,7]naphthyridin]-3′(2′H)-one]
12 | >10 | >3 | COc1cc(OC)c(F)c(N2Cc3cnc(-c4cnn(CCC5CCN(S(C)(=O)=O)CC5)c4)cc3C3(CC3)C2=O)c1F [Example 148, 2′-(2,6-difluoro-3,5-dimethoxyphenyl)-6′-(1-(2-(1-(methylsulfonyl)piperidin-4-yl)ethyl)-1H-pyrazol-4-yl)-1′H-spiro[cyclopropane-l,4′-[2,7]naphthyridin]-3′(2′H)-one]
13 | >5 | >10 | COc1cc(N2C(=O)N(c3c(F)c(OC)cc(OC)c3F)Cc3cnc(-c4cn(C)nc4C)cc32)ccc1C#N [Example 81, 4-(3-(2,6-difluoro-3,5-dimethoxyphenyl)-7-(1,3-dimethyl-1H-pyrazol-4-yl)-2-oxo-3,4-dihydropyrido[4,3-d]pyrimidin-1(2H)-yl)-2-methoxybenzonitrile]
14 | >5 | >5 | COc1cc(OC)c(F)c(N2Cc3cnc(-c4cn(C)nc4C)cc3N(Cc3ccncc3)C2=O)c1F [Example 69, 3-(2,6-difluoro-3,5-dimethoxyphenyl)-7-(1,3-dimethyl-1H-pyrazol-4-yl)-1-(pyridin-4-ylmethyl)-3,4-dihydropyrido[4,3-d]pyrimidin-2(1H)-one]
15 | >3 | >5 | COc1cc(OC)c(F)c(N2Cc3cnc(-c4cn(C)nc4C)cc3N(c3ccc4[nH]ncc4c3)C2=O)c1F [Example 134, 3-(2,6-difluoro-3,5-dimethoxyphenyl)-7-(1,3-dimethyl-1H-pyrazol-4-yl)-1-(1H-indazol-5-yl)-3,4-dihydropyrido[4,3-d]pyrimidin-2(1H)-one]
16 | >5 | >1 | COc1cc(OC)c(F)c(N2Cc3cnc(-c4cn(CCC#N)nc4C)cc3C3(CC3)C2=O)c1F [Example 156, 3-(4-(2′-(2,6-difluoro-3,5-dimethoxyphenyl)-3′-oxo-2′,3′-dihydro-1′H-spiro[cyclopropane-1,4′-[2,7]naphthyridine]-6′-yl)-3-methyl-1H-pyrazol-1-yl)propanenitrile]
17 | >5 | >5 | COc1cc(OC)c(F)c(N2Cc3cnc(-c4cn(C)nc4C)cc3N(Cc3cc(C(C)C)on3)C2=O)c1F [Example 93, 3-(2,6-difluoro-3,5-dimethoxyphenyl)-7-(1,3-dimethyl-1H-pyrazol-4-yl)-1-((5-isopropylisoxazol-3-yl)methyl)-3,4-dihydropyrido[4,3-d]pyrimidin-2(1H)-one]
18 | >3 | >5 | COc1cc(OC)c(F)c(N2Cc3cnc(-c4cn(C)nc4C)cc3N(c3cc(F)cc(F)c3)C2=O)c1F [Example 103, 3-(2,6-difluoro-3,5-dimethoxyphenyl)-1-(3,5-difluorophenyl)-7-(1,3-dimethyl-1H-pyrazol-4-yl)-3,4-dihydropyrido[4,3-d]pyrimidin-2(1H)-one]
19 | >3 | >5 | COc1cc(OC)c(F)c(N2Cc3cnc(-c4cn(C)nc4C)cc3N(c3ccccc3F)C2=O)c1F [Example 110, 3-(2,6-difluoro-3,5-dimethoxyphenyl)-7-(1,3-dimethyl-1H-pyrazol-4-yl)-1-(2-fluorophenyl)-3,4-dihydropyrido[4,3-d]pyrimidin-2(1H)-one]
